Results on 36 compounds are retold here after US10370371B2, “Substituted pyrimidine Bmi-1 inhibitors” (PTC Therapeutics, Inc., priority 2013, dated 2019).

One series has as its system Bmi-1 protein. Description: Sandwich ELISA Assay (Bmi-1 protein level in HT-1080 cells). Format: cell-based. Summed up:
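HT-1080 cells were treated with compounds (0.5% DMSO final) for 40-48 h at 37 °C. Lysates were assayed by sandwich ELISA: mouse anti-Bmi-1 capture, rabbit anti-Bmi-1 and HRP anti-rabbit detection, TMB read at OD450 (OD570 reference). Levels were quantified against a recombinant GST-Bmi-1 standard curve (125-8000 pg/mL).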
In general terms: An ELISA detects its analyte on a solid surface through an enzyme-linked reagent.

Consider `CCc1nn2ccc(F)cc2c1-c1cc(N)nc(Nc2ccc(C(F)(F)F)cc2)n1` [Cpd 111, 6-(2-ethyl-5-fluoropyrazolo[1,5-a]pyridin-3-yl)-N^2-[4-(trifluoromethyl)phenyl]pyrimidine-2,4-diamine], for which the melting point – broadly, the temperature, or range, at which the solid turns liquid – lay in the range of 153 to 157 °C. Moreover, the concentration for a half-maximal effect (EC50) (usually the concentration giving half of the maximal effect) with Bmi-1 protein fell in the range of 10 to 100 nM.
`CCc1nc2ccccc2n1-c1cc(N)nc(Nc2ccc(Cl)cc2)n1` [Cpd 150, N^2-(4-chlorophenyl)-6-(2-ethyl-1H-benzimidazol-1-yl)pyrimidine-2,4-diamine] showed a melting point of 172 to 173 °C. This compound came in with a half-maximal effective concentration (EC50) in the series with Bmi-1 protein of 1 to 10 nM.
As to `COc1ccc(Nc2nc(N)cc(-n3c(C)nc4cc(C)c(C)cc43)n2)cc1` [Cpd 185, N^2-(4-methoxyphenyl)-6-(2,5,6-trimethyl-1H-benzimidazol-1-yl)pyrimidine-2,4-diamine], the melting point lay within 113 to 114 °C. This compound showed a concentration for a half-maximal effect (EC50) in the series with Bmi-1 protein of 10 to 100 nM.
In turn, `CCc1nc2ccc(F)cc2n1-c1cc(N)nc(Nc2cccc(C)c2)n1` [Cpd 166, 6-(2-ethyl-6-fluoro-1H-benzimidazol-1-yl)-N^2-(3-methylphenyl)pyrimidine-2,4-diamine] registered a melting point of 149 to 150 °C. In the series with Bmi-1 protein, this compound returned an EC50 of 100 to 3000 nM.
The matching figures for `Nc1cc(-n2c(C3CC3)nc3ccc(F)cc32)nc(Nc2ccc(OC(F)F)c(F)c2)n1` [Cpd 12, 6-(2-cyclopropyl-6-fluoro-1H-benzimidazol-1-yl)-N^2-[4-(difluoromethoxy)-3-fluorophenyl]pyrimidine-2,4-diamine]: 185 to 186 °C and 10 to 100 nM.
For `Cc1nc2ccc(F)cn2c1-c1cc(N)nc(Nc2ccc(C(F)(F)F)cc2)n1` [Cpd 1, 6-(6-fluoro-2-methylimidazo[1,2-a]pyridin-3-yl)-N^2-[4-(trifluoromethyl)phenyl]pyrimidine-2,4-diamine], the EC50 in the series with Bmi-1 protein lay within 1 to 10 nM.
In the case of `COc1cccc(Nc2nc(N)cc(-n3c(C)nc4cc(F)c(F)cc43)n2)c1` [Cpd 196, 6-(5,6-difluoro-2-methyl-1H-benzimidazol-1-yl)-N^2-(3-methoxyphenyl)pyrimidine-2,4-diamine], the EC50 in the series with Bmi-1 protein was in the range of 100 to 3000 nM.
In turn, `Cc1nc2cc(F)c(F)cc2n1-c1cc(N)nc(Nc2ccc([N+](=O)[O-])cc2)n1` [Cpd 194, 6-(5,6-difluoro-2-methyl-1H-benzimidazol-1-yl)-N^2-(4-nitrophenyl)pyrimidine-2,4-diamine] showed a half-maximal effective concentration (EC50) with Bmi-1 protein of 100 to 3000 nM.
Still for that read-out and setting: the figure for `CCc1nc2cc(F)ccc2n1-c1cc(N)nc(Nc2ccc(C(F)(F)F)nc2)n1` [Cpd 43, 6-(2-ethyl-5-fluoro-1-benzimidazol-1-yl)-N^2-[6-(trifluoromethyl)pyridin-3-yl]pyrimidine-2,4-diamine] is 10 to 100 nM; for `CCc1nc2ccc(F)cc2n1-c1cc(N)nc(Nc2cccc(Cl)c2)n1` [Cpd 164, N^2-(3-chlorophenyl)-6-(2-ethyl-6-fluoro-1H-benzimidazol-1-yl)pyrimidine-2,4-diamine] it is 100 to 3000 nM.
Take `Cc1ccc(Nc2nc(N)cc(-n3c(C)nc4ccccc43)n2)cc1` [Cpd 128, 6-(2-methyl-1H-benzimidazol-1-yl)-N^2-(4-methylphenyl)pyrimidine-2,4-diamine]: in the series with Bmi-1 protein, the concentration giving a half-maximal response (EC50) was 1 to 10 nM.
In the series with Bmi-1 protein, `CCc1nc2ccccc2n1-c1cc(N)nc(Nc2ccc(C(F)(F)F)cc2)n1` [Cpd 23, 6-(2-ethyl-1H-benzimidazol-1-yl)-N^2-[4-(trifluoromethyl)phenyl]pyrimidine-2,4-diamine] returned a concentration giving a half-maximal response (EC50) of 10 to 100 nM.
Take `Cc1nc2cc(F)c(F)cc2n1-c1cc(N)nc(Nc2cccc(Cl)c2)n1` [Cpd 193, N^2-(3-chlorophenyl)-6-(5,6-difluoro-2-methyl-1H-benzimidazol-1-yl)pyrimidine-2,4-diamine]: in the series with Bmi-1 protein, the concentration for a half-maximal effect (EC50) fell in the range of 100 to 3000 nM.
As to `CCc1nc2ccc(F)cc2n1-c1nc(Nc2ccc(C(F)(F)F)cc2)nc(N)c1F` [Cpd 59, 6-(2-ethyl-6-fluoro-1H-benzimidazol-1-yl)-5-fluoro-N^2-[4-(trifluoromethyl)phenyl]pyrimidine-2,4-diamine], the 50% effective concentration (EC50) in the series with Bmi-1 protein was 100 to 3000 nM.
As for `Cc1nc2ccccc2n1-c1cc(NCCO)nc(Nc2ccc(OC(F)F)c(F)c2)n1` [Cpd 17, 2-{[2-{[4-(difluoromethoxy)-3-fluorophenyl]amino}-6-(2-methyl-1H-benzimidazol-1-yl)pyrimidin-4-yl]amino}ethanol], the concentration giving a half-maximal response (EC50) in the series with Bmi-1 protein was 100 to 3000 nM.
Same read-out and setting: then `Nc1cc(-c2c(C(F)(F)F)nc3ccc(F)cn23)nc(Nc2ccc(C(F)(F)F)cc2)n1` [Cpd 50, 6-[6-fluoro-2-(trifluoromethyl)imidazo[1,2-a]pyridin-3-yl]-N^2-[4-(trifluoromethyl)phenyl]pyrimidine-2,4-diamine], with 10 to 100 nM.
In the series with Bmi-1 protein, `Cc1nc2ncc(F)cc2n1-c1cc(N)nc(Nc2ccc(OC(F)F)cc2)n1` [Cpd 101, N^2-[4-(difluoromethoxy)phenyl]-6-(6-fluoro-2-methyl-1H-imidazo[4,5-b]pyridin-1-yl)pyrimidine-2,4-diamine] yielded an EC50 of 1 to 10 nM.
Compound `Cc1nc2ccccc2n1-c1cc(N)nc(Nc2ccc(OC(F)F)cc2)n1` [Cpd 83, N^2-[4-(difluoromethoxy)phenyl]-6-(2-methyl-1H-benzimidazol-1-yl)pyrimidine-2,4-diamine] had an EC50 in the series on Bmi-1 protein of 10 to 100 nM.
Consider `Cc1nc2c(F)cccc2n1-c1cc(N)nc(Nc2ccc(C(F)(F)F)cc2)n1` [Cpd 35, 6-(4-fluoro-2-methyl-1H-benzimidazol-1-yl)-N^2-[4-(trifluoromethyl)phenyl]pyrimidine-2,4-diamine], for which the EC50 in the series on Bmi-1 protein was 10 to 100 nM.
In turn, `COc1ccc(Nc2nc(N)cc(-n3c(C)nc4ccccc43)n2)cc1Cl` [Cpd 149, N^2-(3-chloro-4-methoxyphenyl)-6-(2-methyl-1H-benzimidazol-1-yl)pyrimidine-2,4-diamine] yielded a concentration giving a half-maximal response (EC50) in the series on Bmi-1 protein of 1 to 10 nM.
In the series on Bmi-1 protein, `Cc1nc2cc(F)c(F)cc2n1-c1cc(N)nc(Nc2ccc(C(F)(F)F)c(F)c2)n1` [Cpd 24, 6-(5,6-difluoro-2-methyl-1H-benzimidazol-1-yl)-N^2-[3-fluoro-4-(trifluoromethyl)phenyl]pyrimidine-2,4-diamine] had a concentration giving a half-maximal response (EC50) of 100 to 3000 nM.
As to `Cc1nc2ccccc2n1-c1cc(N)nc(Nc2ccc(Br)cc2)n1` [Cpd 131, N^2-(4-bromophenyl)-6-(2-methyl-1H-benzimidazol-1-yl)pyrimidine-2,4-diamine], the EC50 in the series on Bmi-1 protein fell in the range of 10 to 100 nM.
The same measure, in the same setting: then `Nc1cc(-n2c(C3CC3)nc3ccccc32)nc(Nc2ccc(C(F)(F)F)cc2)n1` [Cpd 61, 6-(2-cyclopropyl-1H-benzimidazol-1-yl)-N^2-[4-(trifluoromethyl)phenyl]pyrimidine-2,4-diamine], with 10 to 100 nM; and `Cc1nc2cc(F)ccc2n1-c1cc(N)[n+]([O-])c(Nc2ccc(C(F)(F)F)cc2)n1` [Cpd 199, 6-(5-fluoro-2-methyl-1H-benzimidazol-1-yl)-N^2-[4-(trifluoromethyl)phenyl]pyrimidine-2,4-diamine 3-oxide], with 100 to 3000 nM; and `COc1ccc(Nc2nc(N)c(F)c(-n3c(C)nc4ccccc43)n2)cc1` [Cpd 176, 5-fluoro-N^2-(4-methoxyphenyl)-6-(2-methyl-1H-benzimidazol-1-yl)pyrimidine-2,4-diamine], with 10 to 100 nM.
On the same count and under the same terms, then `Cc1ccc(Nc2nc(N)cc(-c3c(C)noc3C)n2)cc1` [Cpd 190, 6-(3,5-dimethyl-1,2-oxazol-4-yl)-N^2-(4-methylphenyl)pyrimidine-2,4-diamine], with 100 to 3000 nM; and `Cc1cccc(Nc2nc(N)cc(-c3c(C)nc4ccc(F)cn34)n2)c1` [Cpd 173, 6-(6-fluoro-2-methylimidazo[1,2-a]pyridin-3-yl)-N^2-(3-methylphenyl)pyrimidine-2,4-diamine], with 100 to 3000 nM; and `Nc1cc(-c2ccnc3ccccc23)nc(Nc2ccc(C(F)(F)F)cc2)n1` [Cpd 25, 6-(quinolin-4-yl)-N^2-[4-(trifluoromethyl)phenyl]pyrimidine-2,4-diamine], with 100 to 3000 nM.
`Nc1cc(-n2c(C3CC3)nc3cc(Cl)ccc32)nc(Nc2ccc(OC(F)F)cc2)n1` [Cpd 92, 6-(5-chloro-2-cyclopropyl-1H-benzimidazol-1-yl)-N^2-[4-(difluoromethoxy)phenyl]pyrimidine-2,4-diamine] gave a 50% effective concentration (EC50) in the series with Bmi-1 protein of 10 to 100 nM.
`Nc1cc(-c2c(C(F)(F)F)nc3ccc(F)cn23)nc(Nc2ccc(OC(F)F)cc2)n1` [Cpd 55, N^2-[4-(difluoromethoxy)phenyl]-6-[6-fluoro-2-(trifluoromethyl)imidazo[1,2-a]pyridin-3-yl]pyrimidine-2,4-diamine] showed an EC50 in the series on Bmi-1 protein of 10 to 100 nM.
Turning to `Cc1nc2c(F)cc(F)cc2n1-c1cc(N)nc(Nc2ccc(C(F)(F)F)cc2)n1` [Cpd 34, 6-(4,6-difluoro-2-methyl-1H-benzimidazol-1-yl)-N^2-[4-(trifluoromethyl)phenyl]pyrimidine-2,4-diamine], in the series on Bmi-1 protein, the half-maximal effective concentration (EC50) was in the range of 10 to 100 nM.
`COc1ccc(Nc2nc(N)cc(-c3c(C)nc4ccc(F)cn34)n2)cc1` [Cpd 170, 6-(6-fluoro-2-methylimidazo[1,2-a]pyridin-3-yl)-N^2-(4-methoxyphenyl)pyrimidine-2,4-diamine]: the 50% effective concentration (EC50) with Bmi-1 protein was in the range of 1 to 10 nM.
In the case of `Cc1nc2ccccc2n1-c1cc(N)nc(Nc2ccc(C(F)(F)F)c(F)c2)n1` [Cpd 13, N^2-[3-fluoro-4-(trifluoromethyl)phenyl]-6-(2-methyl-1H-benzimidazol-1-yl)pyrimidine-2,4-diamine], the concentration giving a half-maximal response (EC50) with Bmi-1 protein fell in the range of 100 to 3000 nM.
Still for that read-out and setting: then `Cc1cc(Nc2nc(N)cc(-n3c(C)nc4c(F)cccc43)n2)ccc1C(F)(F)F` [Cpd 52, 6-(4-fluoro-2-methyl-1H-benzimidazol-1-yl)-N^2-[3-methyl-4-(trifluoromethyl)phenyl]pyrimidine-2,4-diamine], with 100 to 3000 nM.
`COc1ccc(Nc2nc(N)cc(-n3c(C)nc4ccc(F)cc43)n2)cc1` [Cpd 133, 6-(6-fluoro-2-methyl-1H-benzimidazol-1-yl)-N^2-(4-methoxyphenyl)pyrimidine-2,4-diamine]: the concentration for a half-maximal effect (EC50) in the series on Bmi-1 protein lay in the range of 1 to 10 nM.
In the case of `Cc1nc2cc(F)c(F)cc2n1-c1cc(N)nc(Nc2ccc(OC(F)F)cc2)n1` [Cpd 77, N^2-[4-(difluoromethoxy)phenyl]-6-(5,6-difluoro-2-methyl-1H-benzimidazol-1-yl)pyrimidine-2,4-diamine], the EC50 in the series on Bmi-1 protein was 10 to 100 nM.
